Molecules are shown by their SMILES. Like-named read-outs stand apart in the source and are kept apart here.

The text below walks through data of publication PMC6112376, “Comprehensive Analyses and Prioritization of Tox21 10K Chemicals Affecting Mitochondrial Function by in-Depth Mechanistic Studies” (Environmental Health Perspectives, 2018).

Data set [1] deals with rat primary hepatocytes.
For data set [2], the system named is HepG2 cells. As to conditions: cited from earlier work; call rule not given here.
Data set [3] has as its system HepG2 cells. Nature of the data set: cells. As to conditions: Homo sapiens; for IC50: HepG2, read-out: MMP assays IC50 (µM) HepG2; for Emax: HepG2, read-out: MMP assays efficacy (%) HepG2.
Data set [4] relates to rat primary hepatocytes. Nature of the data set: MMP assay in rat primary hepatocytes. As to conditions: for IC50: Rattus norvegicus, Hepatocyte, read-out: MMP assays IC50 (µM) Rat Hepatocytes.
The mark [5] stands for this setting: read-out: MMP assays IC50 (µM) qHTS-HepG2.
The mark [6] stands for this setting: read-out: MMP assays IC50 (µM), qHTS-HepG2.

In general, IC50 refers to the point on the concentration scale where inhibition reaches its midpoint. With `Oc1cc(Cl)c(Cl)c(Cl)c1Cl` [2,3,4,5-Tetrachlorophenol], the “MMP assays efficacy (%) Rat Hepatocytes” value in the data set on rat primary hepatocytes [1] was -76±25%. Further, the “MMP assays efficacy (%) qHTS-HepG2” value in the data set with HepG2 cells [2] was -99±11%. Also, the IC50 in the data set with HepG2 cells [2] (setting [5]) is 4.93 ± 2.04 µM; with HepG2 cells [3], 7.94 µM; in the data set on rat primary hepatocytes [4], 11.6 ± 5.42 µM. For the same molecule, the Emax with HepG2 cells [3] was 121%.
Turning to `CC(C)(c1ccccc1)c1ccc(O)cc1` [Compound 4-Cumylphenol], the “MMP assays efficacy (%) Rat Hepatocytes” value with rat primary hepatocytes [1] is on record as -77±17%. In addition, the “MMP assays efficacy (%) qHTS-HepG2” value in the data set on HepG2 cells [2] is on record as -103±17%. Further, the IC50 is 3.7 ± 0.82 µM in the data set with HepG2 cells [2] (setting [5]), 3.55 µM with HepG2 cells [3] and 48 ± 11.6 µM in the data set with rat primary hepatocytes [4]. In addition, in the data set on HepG2 cells [3], the Emax is 108%.
With `O=C(NC(=O)c1c(F)cccc1F)Nc1ccc(Cl)c(Oc2ncc(C(F)(F)F)cc2Cl)c1` [Fluazuron], in the data set with rat primary hepatocytes [1], the “MMP assays efficacy (%) Rat Hepatocytes” value was -64±17%. Further, in the data set with HepG2 cells [2], the “MMP assays efficacy (%) qHTS-HepG2” value is listed as -66±7%. Further, the IC50 is 3.96 ± 2.31 µM in the data set with HepG2 cells [2] (setting [6]), 12.3 µM in the data set on HepG2 cells [3] and 9.83 ± 13.6 µM with rat primary hepatocytes [4]. The Emax with HepG2 cells [3] was found to be 83%.
As to `CCN(CC)C(=O)[C@@H]1C=C2c3cccc4[nH]cc(c34)C[C@H]2N(C)C1` [Lysergide], the “MMP assays efficacy (%) Rat Hepatocytes” value with rat primary hepatocytes [1] is “inactive”. Moreover, in the data set with HepG2 cells [2], the “MMP assays efficacy (%) qHTS-HepG2” value is recorded as -54±2%. For the same molecule, the IC50 in the data set on HepG2 cells [2] (setting [6]) was 9.03 ± 1.87 µM. In the data set with HepG2 cells [3], the IC50 was 17.3 µM and the Emax worked out at 48%. Further, the “MMP assays IC50 (µM) Rat Hepatocytes” value in the data set on rat primary hepatocytes [4] was “inactive”.
Turning to `Oc1ccccc1-c1ccccc1` [Compound 2-Phenylphenol], the “MMP assays efficacy (%) Rat Hepatocytes” value in the data set with rat primary hepatocytes [1] is listed as -75±20%. For the same molecule, in the data set with HepG2 cells [2], the “MMP assays efficacy (%) qHTS-HepG2” value is -97±7%. Besides, the IC50 in the data set with HepG2 cells [2] (setting [5]) was 17.9 ± 1.41 µM; with HepG2 cells [3] it was 28.2 µM; in the data set on rat primary hepatocytes [4], 53.2 ± 4.32 µM. Also, the Emax in the data set with HepG2 cells [3] stood at 108%.
On to `CCC(C)(C)c1ccc(O)cc1` [4-(2-Methylbutan-2-yl)phenol], for which the “MMP assays efficacy (%) Rat Hepatocytes” value with rat primary hepatocytes [1] is “inactive”. Also, in the data set on HepG2 cells [2], the “MMP assays efficacy (%) qHTS-HepG2” value is reported as -95±13%. The IC50 with HepG2 cells [2] (setting [5]) is 22.7 ± 3.07 µM. In the data set with HepG2 cells [3], the IC50 is 35.5 µM and the Emax worked out at 96%. Also, in the data set with rat primary hepatocytes [4], the “MMP assays IC50 (µM) Rat Hepatocytes” value was “inactive”.
For `CC1(C)[C@H](C(=O)O[C@H](C#N)c2cccc(Oc3ccccc3)c2)[C@@H]1/C=C(\Cl)C(F)(F)F` [lambda-Cyhalothrin], the “MMP assays efficacy (%) Rat Hepatocytes” value with rat primary hepatocytes [1] is recorded as -56±14%. For the same molecule, in the data set with HepG2 cells [2], the “MMP assays efficacy (%) qHTS-HepG2” value was -68±22%. Besides, the IC50 in the data set on HepG2 cells [2] (setting [6]) was 24.4 ± 1.59 µM; in the data set with HepG2 cells [3] it was 15.8 µM; in the data set on rat primary hepatocytes [4], 28.2 µM. The Emax in the data set with HepG2 cells [3] was determined as 58%.
Take `Cc1ccccc1C(=O)Nc1cccc(OC(C)C)c1` [Mepronil]: the “MMP assays efficacy (%) Rat Hepatocytes” value in the data set on rat primary hepatocytes [1] is given as -39±16%. Also, in the data set on HepG2 cells [2], the “MMP assays efficacy (%) qHTS-HepG2” value was -73±6%. Besides, the values for the IC50 with HepG2 cells [2] (setting [6]), in the data set with HepG2 cells [3] and in the data set on rat primary hepatocytes [4] were 40.9 ± 19.2 µM, 39.8 µM and 56.2 µM, respectively. In addition, in the data set with HepG2 cells [3], the Emax came to 72%.
Regarding `Oc1ccc2ccc3cccc4ccc1c2c34` [Compound 1-Hydroxypyrene], the “MMP assays efficacy (%) Rat Hepatocytes” value in the data set on rat primary hepatocytes [1] is -49±25%. The “MMP assays efficacy (%) qHTS-HepG2” value with HepG2 cells [2] is reported as -110±22%. For the same molecule, the IC50 was 4.67 ± 1.95 µM in the data set on HepG2 cells [2] (setting [5]), 7.08 µM with HepG2 cells [3] and 33.5 ± 2.73 µM in the data set with rat primary hepatocytes [4]. Further, the Emax in the data set with HepG2 cells [3] is 99%.
On to `Cc1cc(C)c(/C=C2\C(=O)Nc3ccccc32)[nH]1` [SU-5416], for which the “MMP assays efficacy (%) Rat Hepatocytes” value with rat primary hepatocytes [1] is recorded as -83±12%. Further, the “MMP assays efficacy (%) qHTS-HepG2” value with HepG2 cells [2] was -116±2%. The results for the concentration for half-maximal inhibition (IC50) in the data set with HepG2 cells [2] (setting [6]), with HepG2 cells [3] and in the data set on rat primary hepatocytes [4] were 12.5 ± 1.78 µM, 13.8 µM and 11 ± 1.78 µM, respectively. Also, the Emax in the data set on HepG2 cells [3] came to 115%.
With `CCC(C)(C)c1cc(O)c(C(C)(C)CC)cc1O`, the “MMP assays efficacy (%) Rat Hepatocytes” value in the data set with rat primary hepatocytes [1] is listed as -87±19%. The “MMP assays efficacy (%) qHTS-HepG2” value in the data set on HepG2 cells [2] is given as -121±19%. The figures for the concentration for half-maximal inhibition (IC50) in the data set on HepG2 cells [2] (setting [5]), with HepG2 cells [3] and in the data set with rat primary hepatocytes [4] were 6.86 ± 3.17 µM, 3.55 µM and 34.5 ± 5.88 µM, respectively. The Emax in the data set on HepG2 cells [3] is 101%.
On to `Clc1ccc(C(c2ccccc2Cl)C(Cl)Cl)cc1` (stereo not drawn) [o,p'-DDD], for which, in the data set on rat primary hepatocytes [1], the “MMP assays efficacy (%) Rat Hepatocytes” value was -45±27%. In addition, in the data set with HepG2 cells [2], the “MMP assays efficacy (%) qHTS-HepG2” value is -112±11%. Also, the results for the IC50 in the data set on HepG2 cells [2] (setting [6]), in the data set with HepG2 cells [3] and in the data set with rat primary hepatocytes [4] were 19.8 ± 0.94 µM, 19.4 µM and 24.2 ± 14.7 µM, respectively. The Emax in the data set on HepG2 cells [3] turned out to be 151%.
As to `CN(C)c1ccc2nc3ccc(=[N+](C)C)cc-3sc2c1` [Methylene blue], the “MMP assays efficacy (%) Rat Hepatocytes” value with rat primary hepatocytes [1] was “inactive”. The “MMP assays efficacy (%) qHTS-HepG2” value in the data set with HepG2 cells [2] is on record as -78±9%. The IC50 in the data set on HepG2 cells [2] (setting [6]) was 2.88 ± 1.33 µM; in the data set with HepG2 cells [3], 2.75 µM. The Emax in the data set with HepG2 cells [3] was 89%. For the same molecule, the “MMP assays IC50 (µM) Rat Hepatocytes” value in the data set on rat primary hepatocytes [4] was “inactive”.
As to `OC1(c2ccc(Cl)c(C(F)(F)F)c2)CCN(CCCC(c2ccc(F)cc2)c2ccc(F)cc2)CC1` [Penfluridol], the “MMP assays efficacy (%) Rat Hepatocytes” value with rat primary hepatocytes [1] is on record as -64±25%. In addition, the “MMP assays efficacy (%) qHTS-HepG2” value in the data set with HepG2 cells [2] is -88±15%. The IC50 with HepG2 cells [2] (setting [6]) was 33.5 µM; with HepG2 cells [3], 27.5 µM; in the data set with rat primary hepatocytes [4], 23.2 ± 6.57 µM. The Emax in the data set with HepG2 cells [3] was found to be 68%.
